Source: patent US10047075B2, “Pyridines and pyrimidines and use thereof” (Purdue Pharma L.P., priority 2014, dated 2018)
Read-outs that look alike come from different tables or passages of the source.

Experiments:
hNav1.7 = hNav1.7 (Homo sapiens, UniProt Q15858); assay: Electrophysiology (EP) assay, whole-cell patch clamp, hNav1.7 expressing HEK-293 cells; assay type: cell-based; conditions: hNav1.7 HEK-293 cells; affinity for the inactivated state; read-out: Nav1.7 Activity (μM) EP assay Ki
Procedure: The hNav1.7 expressing HEK-293 cells are plated on 35 mm culture dishes pre-coated with poly-D-lysine in standard DMEM culture media (Mediatech, Inc., Herndon, Va.) and incubated in a 5% CO2 incubator at 37° C. Cultured cells are used approximately 12-48 hours after plating.
The hNav1.7 expressing HEK-293 cells are plated on tissue culture flasks in standard DMEM culture media (Mediatech, Inc.) and incubated in a 5% CO2 incubator at 37° C. Cultured cells are used approximately 12-48 hours after plating.
On the day of experimentation, the 35 mm dish is placed on the stage of an inverted microscope equipped with a perfusion system that continuously perfuses the culture dish with fresh recording media. A gravity driven superfusion system is used to apply test solutions directly to the cell under evaluation. This “shooter” system consists of an array of glass pipettes connected to a motorized horizontal translator. The outlet of the shooter is positioned approximately 100 μm from the cell of interest.
Whole cell currents are recorded using the whole-cell patch clamp configuration using an Axopatch 200B amplifier (Axon Instruments, Foster City Calif.), 1322A A/D converter (Axon Instruments) and pClamp software (v. 8; Axon Instruments) and stored on a personal computer. Gigaseals are formed and the whole-cell configuration is established in voltage clamp mode, and membrane currents generated by hNav1.7 channels are recorded. Borosilicate glass pipettes with resistance values between 1.5 and 2.0 MΩ when filled with pipette solution are used and series resistance (<5 MΩ) is compensated by 75-80%. Signals are sampled at 50 kHz and low pass filtered at 3 kHz.
Automated Electrophysiology: On the day of experimentation, cells are prepared by removing media and digesting with appropriate enzymes to suspend cells in external solution.
Whole cell currents are recorded using the whole-cell patch clamp configuration using an Patchliner (Nanion Technologies, Munich Germany), EPC 10 quadro amplifiers (HEKA, Bellmore, N.Y.) and PatchControl HT 10905 (Nanion Technologies) and PatchMaster v2x73 software (HEKA) and stored on a personal computer. Gigaseals are formed and the whole-cell configuration is established in voltage clamp mode, and membrane currents generated by hNav1.7 are recorded. NPC-16 chips have resistance values between 1.0 and 2.0 MΩ when filled with pipette solution and series resistance (<5 MΩ). Signals are sampled at 25 kHz and low pass filtered at 3 kHz.
After establishing the whole-cell configuration in voltage clamp mode, voltage protocols are run to establish the 1) test potential (Vmax), 2) holding potential (Vh), and 3) the conditioning potential for each cell.
After establishing the whole-cell configuration in voltage clamp mode, a standard I-V protocol is run to determine the potential at which the maximal current (Imax) is elicited. This potential is the test potential (Vt). To determine a conditioning potential at which 100% of channels are in the inactivated state, a standard steady-state inactivation (SSIN) protocol is run using a series of fifteen 100 ms-long depolarizing prepulses, incrementing in 10 mV steps, immediately followed by a 5 ms testing pulse to Vmax. This protocol also permits determination of the holding potential at which all channels are in the resting state.
For compounds causing significant retardation of recovery from inactivation, an estimate of the affinity for the inactivated state of the channel (Ki) is generated using the following protocol. From the negative, no residual inactivation, holding potential, the cell is depolarized to the conditioning voltage for 2-5 seconds, returned to the negative holding potential for 10-20 ms to relieve fast inactivation and then depolarized to the test potential for ˜15 ms. This voltage protocol is repeated every 10-15 seconds, first to establish a baseline in the absence of the test compound, then in the presence of the test compound. […]

human Nav1.7 = human Nav1.7 (Homo sapiens, UniProt Q15858); assay: FLIPR or FLIPR TETRA sodium dye assay with KCl and test article pre-incubation (CoroNa Green, veratridine + scorpion venom); assay type: cell-based
human Nav1.7, sequence (Q15858 1-1977 isoform Q15858-3): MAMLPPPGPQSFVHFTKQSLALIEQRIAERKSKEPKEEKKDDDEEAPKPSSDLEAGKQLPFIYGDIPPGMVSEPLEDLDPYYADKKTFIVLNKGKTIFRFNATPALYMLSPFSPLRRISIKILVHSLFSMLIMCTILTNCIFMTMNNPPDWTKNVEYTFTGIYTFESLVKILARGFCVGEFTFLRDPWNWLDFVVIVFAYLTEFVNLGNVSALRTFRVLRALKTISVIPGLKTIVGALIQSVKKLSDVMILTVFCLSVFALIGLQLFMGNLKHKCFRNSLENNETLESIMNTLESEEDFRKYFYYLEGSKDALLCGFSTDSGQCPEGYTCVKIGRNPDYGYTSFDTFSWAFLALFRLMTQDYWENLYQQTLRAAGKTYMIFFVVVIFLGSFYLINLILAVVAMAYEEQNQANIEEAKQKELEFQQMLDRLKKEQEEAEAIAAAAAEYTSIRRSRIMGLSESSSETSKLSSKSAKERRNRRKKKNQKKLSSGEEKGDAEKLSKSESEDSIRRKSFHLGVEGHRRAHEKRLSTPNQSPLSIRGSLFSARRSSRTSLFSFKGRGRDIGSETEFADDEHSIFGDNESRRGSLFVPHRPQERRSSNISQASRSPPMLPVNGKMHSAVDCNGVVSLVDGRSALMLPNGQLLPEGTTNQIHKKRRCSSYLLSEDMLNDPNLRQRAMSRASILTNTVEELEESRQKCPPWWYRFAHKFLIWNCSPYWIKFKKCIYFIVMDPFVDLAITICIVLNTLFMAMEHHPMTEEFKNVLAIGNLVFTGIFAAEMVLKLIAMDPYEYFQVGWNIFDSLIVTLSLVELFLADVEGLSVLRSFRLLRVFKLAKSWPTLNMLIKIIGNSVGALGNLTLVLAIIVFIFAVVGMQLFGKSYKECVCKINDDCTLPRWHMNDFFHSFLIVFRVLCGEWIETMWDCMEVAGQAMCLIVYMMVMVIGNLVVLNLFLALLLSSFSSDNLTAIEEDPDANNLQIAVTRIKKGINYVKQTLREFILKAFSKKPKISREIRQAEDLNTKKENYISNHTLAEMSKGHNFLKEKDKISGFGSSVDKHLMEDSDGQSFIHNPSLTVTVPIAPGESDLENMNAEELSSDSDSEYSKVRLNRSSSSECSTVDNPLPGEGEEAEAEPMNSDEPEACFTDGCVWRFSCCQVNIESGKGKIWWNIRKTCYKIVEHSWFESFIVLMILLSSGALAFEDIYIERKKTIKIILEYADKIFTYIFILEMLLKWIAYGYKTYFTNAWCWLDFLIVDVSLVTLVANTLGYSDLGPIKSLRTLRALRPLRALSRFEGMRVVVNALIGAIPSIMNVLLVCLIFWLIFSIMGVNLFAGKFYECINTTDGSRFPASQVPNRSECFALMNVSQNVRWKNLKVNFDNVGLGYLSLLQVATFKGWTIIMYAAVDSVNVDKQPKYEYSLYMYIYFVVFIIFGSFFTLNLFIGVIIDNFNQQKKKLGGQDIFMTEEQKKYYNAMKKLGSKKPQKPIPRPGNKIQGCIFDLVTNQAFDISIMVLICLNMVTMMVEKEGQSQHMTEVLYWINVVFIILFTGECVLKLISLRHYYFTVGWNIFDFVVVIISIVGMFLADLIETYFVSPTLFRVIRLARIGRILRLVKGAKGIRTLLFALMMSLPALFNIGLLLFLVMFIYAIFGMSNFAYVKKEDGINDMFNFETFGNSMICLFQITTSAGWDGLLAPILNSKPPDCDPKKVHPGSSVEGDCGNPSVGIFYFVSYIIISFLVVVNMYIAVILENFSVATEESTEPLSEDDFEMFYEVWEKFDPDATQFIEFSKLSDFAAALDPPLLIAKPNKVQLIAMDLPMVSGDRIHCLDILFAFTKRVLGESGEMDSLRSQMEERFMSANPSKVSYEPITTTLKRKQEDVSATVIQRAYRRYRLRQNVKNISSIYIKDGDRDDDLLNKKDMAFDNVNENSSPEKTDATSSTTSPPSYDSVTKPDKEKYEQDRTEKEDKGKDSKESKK

Nav1.6 = Nav1.6 (Homo sapiens, UniProt Q9UQD0); conditions: read-out: TTX IC50; cited from earlier work
Nav1.2 = Nav1.2 (Homo sapiens, UniProt Q99250); conditions: read-out: TTX IC50; cited from earlier work
Nav1.9 = Nav1.9 (Homo sapiens, UniProt Q9UI33); conditions: read-out: TTX IC50; cited from earlier work
Nav1.1 = Nav1.1 (Homo sapiens, UniProt P35498); conditions: read-out: TTX IC50; cited from earlier work
Nav1.3 = Nav1.3 (Homo sapiens, UniProt Q9NY46); conditions: read-out: TTX IC50; cited from earlier work
Nav1.8 = Nav1.8 (Homo sapiens, UniProt Q9Y5Y9); conditions: read-out: TTX IC50; cited from earlier work
Nav1.8, sequence (Q9Y5Y9 whole entry, looked up): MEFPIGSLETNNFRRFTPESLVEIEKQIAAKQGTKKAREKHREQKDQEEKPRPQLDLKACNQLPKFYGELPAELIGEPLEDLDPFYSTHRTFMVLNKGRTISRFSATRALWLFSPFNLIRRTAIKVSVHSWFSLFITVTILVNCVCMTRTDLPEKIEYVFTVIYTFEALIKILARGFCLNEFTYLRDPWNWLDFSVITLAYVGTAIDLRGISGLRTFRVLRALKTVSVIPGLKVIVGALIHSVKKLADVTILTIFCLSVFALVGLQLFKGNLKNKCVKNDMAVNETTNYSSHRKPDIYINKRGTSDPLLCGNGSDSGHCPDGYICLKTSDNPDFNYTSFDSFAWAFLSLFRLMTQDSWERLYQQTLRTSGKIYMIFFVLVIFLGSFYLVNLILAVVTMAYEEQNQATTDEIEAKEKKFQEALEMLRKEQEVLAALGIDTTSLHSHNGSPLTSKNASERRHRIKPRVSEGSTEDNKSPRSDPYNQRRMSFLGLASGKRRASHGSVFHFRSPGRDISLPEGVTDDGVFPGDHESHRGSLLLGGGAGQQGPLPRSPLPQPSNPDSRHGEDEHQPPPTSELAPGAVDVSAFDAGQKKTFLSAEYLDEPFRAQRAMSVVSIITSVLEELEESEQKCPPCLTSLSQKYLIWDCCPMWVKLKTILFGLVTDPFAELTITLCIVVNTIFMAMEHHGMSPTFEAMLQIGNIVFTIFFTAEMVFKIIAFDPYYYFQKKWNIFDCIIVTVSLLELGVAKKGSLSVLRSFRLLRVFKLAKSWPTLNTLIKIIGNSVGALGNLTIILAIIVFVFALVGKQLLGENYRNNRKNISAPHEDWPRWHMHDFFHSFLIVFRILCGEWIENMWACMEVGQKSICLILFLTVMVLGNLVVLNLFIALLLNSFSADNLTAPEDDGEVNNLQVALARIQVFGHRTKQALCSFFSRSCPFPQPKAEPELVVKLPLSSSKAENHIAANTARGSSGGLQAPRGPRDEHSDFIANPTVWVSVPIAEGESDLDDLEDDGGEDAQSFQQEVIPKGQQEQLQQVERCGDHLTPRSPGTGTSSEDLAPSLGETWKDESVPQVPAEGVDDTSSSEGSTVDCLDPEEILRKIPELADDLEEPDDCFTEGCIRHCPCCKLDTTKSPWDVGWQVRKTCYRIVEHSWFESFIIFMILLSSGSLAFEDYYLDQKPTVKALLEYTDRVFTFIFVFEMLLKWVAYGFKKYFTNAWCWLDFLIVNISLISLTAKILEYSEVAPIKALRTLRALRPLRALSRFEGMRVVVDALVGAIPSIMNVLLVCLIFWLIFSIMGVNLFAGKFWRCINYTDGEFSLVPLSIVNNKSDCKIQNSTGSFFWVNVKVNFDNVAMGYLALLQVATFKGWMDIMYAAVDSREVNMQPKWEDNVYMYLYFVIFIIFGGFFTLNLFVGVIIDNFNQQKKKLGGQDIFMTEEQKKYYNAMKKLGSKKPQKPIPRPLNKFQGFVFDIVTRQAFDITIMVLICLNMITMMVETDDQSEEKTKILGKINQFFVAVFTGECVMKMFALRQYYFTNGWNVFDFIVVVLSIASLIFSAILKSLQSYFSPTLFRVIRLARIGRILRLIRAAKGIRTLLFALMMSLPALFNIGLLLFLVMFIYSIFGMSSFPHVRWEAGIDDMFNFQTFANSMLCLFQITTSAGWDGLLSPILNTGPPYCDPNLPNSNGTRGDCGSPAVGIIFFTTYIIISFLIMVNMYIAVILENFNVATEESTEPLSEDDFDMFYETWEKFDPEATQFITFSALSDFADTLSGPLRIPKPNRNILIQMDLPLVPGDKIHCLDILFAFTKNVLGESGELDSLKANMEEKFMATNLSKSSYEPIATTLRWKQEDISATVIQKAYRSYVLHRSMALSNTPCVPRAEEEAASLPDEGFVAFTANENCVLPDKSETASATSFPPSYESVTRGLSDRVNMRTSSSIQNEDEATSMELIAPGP

[1] = recombinant human Nav1.7 in HEK293 cells

hNav1.7, sequence (Q15858 1-1977 isoform Q15858-3): as the sequence (Q15858 1-1977 isoform Q15858-3) above

Row | SMILES | Ki (hNav1.7) | IC50 (human Nav1.7; [1]) | further results
1 | OC[C@@H](O)c1cccc(-c2ccc3c(c2)COCCN3c2ccc(C(F)(F)F)cc2)n1 [Compound 62, (S)-1-(6-(1-(4-(trifluoromethyl)phenyl)-1,2,3,5-tetrahydrobenzo[e][1,4]oxazepin-7-yl)pyridin-2-yl)ethane-1,2-diol] | 0.458 ± 0.078 µM | 0.419 ± 0.058 µM | –
2 | NC(=O)N1CCN(c2ccc(C(F)(F)F)cc2)c2ccc(-c3cccc([C@H](O)CO)n3)cc2C1 [Compound 98, (S)-7-(6-(1,2-dihydroxyethyl)pyridin-2-yl)-1-(4-(trifluoromethyl)phenyl)-1,2,3,5-tetrahydro-4H-benzo[e][1,4]diazepin-4-carboxamide] | 0.451 ± 0.092 µM | – | IC50 (human Nav1.7): 0.973 ± 0.099 µM
3 | CC(C)CN1CCN(S(C)(=O)=O)Cc2cc(-c3cccc([C@H](O)CO)n3)ccc21 [Compound 124, (S)-1-(6-(1-isobutyl-4-(methylsulfonyl)-2,3,4,5-tetrahydro-1H-benzo-[e][1,4]diazepin-7-yl)pyridin-2-yl)ethane-1,2-diol] | 2.14 ± 0.586 µM | – | –
4 | CC(=O)N1CCN(c2ccc(C(F)(F)F)cc2)c2ccc(-c3cccc([C@H](O)CO)n3)cc2C1 [Compound 96, (S)-1-(7-(6-(1,2-dihydroxyethyl)pyridin-2-yl)-1-(4-(trifluoromethyl)phenyl)-1,2,3,5-tetrahydro-4H-benzo[e][1,4]diazepin-4-yl)ethan-1-one] | 0.627 ± 0.134 µM | 0.662 ± 0.035 µM | –
5 | NC1=N[C@H](O)[C@H]2[C@H]3O[C@]4(O)O[C@@H]([C@@H](O)[C@@]2(N1)[C@@H]4O)[C@]3(O)CO [TTX, tetrodotoxin] | – | – | IC50 (Nav1.6): 6 nM; IC50 (Nav1.2): 10 nM; IC50 (Nav1.9): 1000 nM; IC50 (Nav1.1): 10 nM; IC50 (Nav1.3): 15 nM; IC50 (Nav1.8): 50000 nM
6 | O=C(CO)N1CCN(c2ccc(C(F)(F)F)cc2)c2ccc(-c3cccc([C@H](O)CO)n3)cc2C1 [Compound 99, (S)-1-(7-(6-(1,2-dihydroxyethyl)pyridin-2-yl)-1-(4-(trifluoromethyl)phenyl)-1,2,3,5-tetrahydro-4H-benzo[e][1,4]diazepin-4-yl)-2-hydroxyethan-1-one] | 1.23 ± 0.364 µM | 0.896 ± 0.186 µM | –
7 | NC(=O)CN1CCN(c2ccc(C(F)(F)F)cc2)c2ccc(-c3cccc([C@H](O)CO)n3)cc2C1 [Compound 103, (S)-2-(7-(6-(1,2-dihydroxyethyl)pyridin-2-yl)-1-(4-(trifluoromethyl)phenyl)-1,2,3,5-tetrahydro-4H-benzo[e][1,4]diazepin-4-yl)acetamide] | 0.299 ± 0.068 µM | – | IC50 (human Nav1.7): 1.05 ± 0.055 µM
8 | CC(=O)N1CCN(c2ccc(C(F)(F)F)cc2)c2ccc(-c3cccc(C(N)=O)n3)cc2C1 [Compound 91, 6-(4-acetyl-1-(4-(trifluoromethyl)phenyl)-2,3,4,5-tetrahydro-1H-benzo[e][1,4]diazepin-7-yl)picolinamide] | 0.3 ± 0.033 µM | 0.375 ± 0.062 µM | –
9 | NC(=O)c1cccc(-c2ccc3c(c2)OCCC3c2ccc(C(F)(F)F)cc2)n1 (stereo not shown) [Compound 110, 6-(4-(4-(trifluoromethyl)-phenyl)chroman-7-yl)-picolinamide] | 0.161 ± 0.07 µM | 0.142 ± 0.038 µM | –
10 | CC(C)CN1CCN(S(C)(=O)=O)Cc2cc(-c3cccc([C@H](O)[C@@H](O)C(N)=O)n3)ccc21 [Compound 125, (2R,3S)-2,3-dihydroxy-3-(6-(1-isobutyl-4-(methylsulfonyl)-2,3,4,5-tetrahydro-1H-benzo[e][1,4]diazepin-7-yl)pyridin-2-yl)propanamide] | 7.1 ± 2.45 µM | – | –
11 | C[C@H](Nc1cc(C(N)=O)nc(-c2ccc3c(c2)OCCC3c2ccc(C(F)(F)F)cc2)n1)C(N)=O (stereo partly drawn) [Compound 111, 6-(((S)-1-amino-1-oxopropan-2-yl)amino)-2-(4-(4-(trifluoromethyl)phenyl)chroman-7-yl)pyrimidine-4-carboxamide] | 0.459 ± 0.1 µM | 0.379 ± 0.044 µM | –
12 | CN1CCN(c2ccc(C(F)(F)F)cc2)c2ccc(-c3cccc(C(N)=O)n3)cc2C1 [Compound 85, 6-(4-methyl-1-(4-(trifluoromethyl)phenyl)-2,3,4,5-tetrahydro-1H-benzo[e][1,4]diazepin-7-yl)picolinamide] | 0.399 ± 0.2 µM | 0.607 ± 0.086 µM | –
13 | C[C@H](Nc1cc(C(N)=O)nc(-c2ccc3c(c2)OCCCN3c2ccc(C(F)(F)F)cc2)n1)C(N)=O [Compound 63, (S)-6-((1-amino-1-oxopropan-2-yl)amino)-2-(5-(4-(trifluoromethyl)phenyl)-2,3,4,5-tetrahydrobenzo[b][1,4]oxazepin-8-yl)pyrimidine-4-carboxamide] | 0.344 ± 0.1 µM | 0.246 ± 0.029 µM | –
14 | C[C@H](Nc1cc(C(N)=O)nc(-c2ccc3c(c2)CN(C)CCN3c2ccc(C(F)(F)F)cc2)n1)C(N)=O [Compound 90, (S)-6-((1-amino-1-oxopropan-2-yl)amino)-2-(4-methyl-1-(4-(trifluoromethyl)phenyl)-2,3,4,5-tetrahydro-1H-benzo[e][1,4]diazepin-7-yl)pyrimidine-4-carboxamide] | – | > 20 µM | –
15 | C[C@H](Nc1cc(C(N)=O)nc(-c2ccc3c(c2)OC[C@H](O)[C@H]3c2ccc(C(F)(F)F)cc2)n1)C(N)=O [Compound 71, 6-(((S)-1-amino-1-oxopropan-2-yl)amino)-2-((3R,4S)-3-hydroxy-4-(4-(trifluoromethyl)phenyl)chroman-7-yl)pyrimidine-4-carboxamide] | – | > 20 µM | –
16 | C[C@H](Nc1cc(C(N)=O)nc(-c2ccc3c(c2)CCCCN3C2CCCCC2)n1)C(N)=O [Compound 74, (S)-6-((1-amino-1-oxopropan-2-yl)amino)-2-(1-cyclohexyl-2,3,4,5-tetrahydro-1H-benzo[b]azepin-7-yl)pyrimidine-4-carboxamide] | – | 4.88 ± 0.47 µM | –
17 | OC[C@@H](O)c1cccc(-c2ccc3c(c2)CN(CC2CC2)CCN3c2ccc(C(F)(F)F)cc2)n1 [Compound 87, (S)-1-(6-(4-(cyclopropylmethyl)-1-(4-(trifluoromethyl)phenyl)-2,3,4,5-tetrahydro-1H-benzo[e][1,4]diazepin-7-yl)pyridin-2-yl)ethane-1,2-diol] | 0.548 ± 0.089 µM | – | IC50 (human Nav1.7): 1.32 ± 0.133 µM
18 | N#CCN1CCN(c2ccc(C(F)(F)F)cc2)c2ccc(-c3cccc([C@H](O)CO)n3)cc2C1 [Compound 106, (S)-2-(7-(6-(1,2-dihydroxyethyl)pyridin-2-yl)-1-(4-(trifluoromethyl)phenyl)-1,2,3,5-tetrahydro-4H-benzo[e][1,4]diazepin-4-yl)acetonitrile] | – | 0.581 ± 0.038 µM | –
19 | NC(=O)c1cccc(-c2ccc3c(c2)CN(CC(O)CO)CCN3c2ccc(C(F)(F)F)cc2)n1 (stereo not shown) [Compound 109, 6-(4-(2,3-dihydroxypropyl)-1-(4-(trifluoromethyl)phenyl)-2,3,4,5-tetrahydro-1H-benzo[e][1,4]diazepin-7-yl)picolinamide] | – | 5.7 ± 0.663 µM | –
20 | O=C1Cc2cc(-c3cccc([C@H](O)CO)n3)ccc2N1Cc1ccc(C(F)(F)F)cc1 [Compound 77, (S)-5-(6-(1,2-dihydroxyethyl)pyridin-2-yl)-1-(4-(trifluoromethyl)-benzyl)indolin-2-one] | – | 7.8 ± 0.691 µM | –
21 | CS(=O)(=O)N1CCN(c2ccc(C(F)(F)F)cc2)c2ccc(-c3cccc([C@H](O)CO)n3)cc2C1 [Compound 95, (S)-1-(6-(4-(methylsulfonyl)-1-(4-(trifluoromethyl)phenyl)-2,3,4,5-tetrahydro-1H-benzo[e][1,4]diazepin-7-yl)pyridin-2-yl)ethane-1,2-diol] | – | – | IC50 (human Nav1.7): 0.469 ± 0.017 µM
